Measurements as given in US12344615B2, “Substituted pyridines as ion channel modulators” (PRAXIS PRECISION MEDICINES, INC., priority 2019, dated 2025).

The molecules below were run against T1, INaL v1.6 (late sodium current, HEK-293 cells expressing recombinant sodium channels) (Homo sapiens, UniProt Q9UQD0) (assay: Inhibition of ATX-II evoked Nav late current (INaL), PatchXpress electrophysiology). Conditions: HEK293, compound at 1 μM, late current evoked by ATX-II 300 nM.
T1 construct: expressed in transfected cells; host or cells: HEK-293
T1 sequence (Q9UQD0 whole entry): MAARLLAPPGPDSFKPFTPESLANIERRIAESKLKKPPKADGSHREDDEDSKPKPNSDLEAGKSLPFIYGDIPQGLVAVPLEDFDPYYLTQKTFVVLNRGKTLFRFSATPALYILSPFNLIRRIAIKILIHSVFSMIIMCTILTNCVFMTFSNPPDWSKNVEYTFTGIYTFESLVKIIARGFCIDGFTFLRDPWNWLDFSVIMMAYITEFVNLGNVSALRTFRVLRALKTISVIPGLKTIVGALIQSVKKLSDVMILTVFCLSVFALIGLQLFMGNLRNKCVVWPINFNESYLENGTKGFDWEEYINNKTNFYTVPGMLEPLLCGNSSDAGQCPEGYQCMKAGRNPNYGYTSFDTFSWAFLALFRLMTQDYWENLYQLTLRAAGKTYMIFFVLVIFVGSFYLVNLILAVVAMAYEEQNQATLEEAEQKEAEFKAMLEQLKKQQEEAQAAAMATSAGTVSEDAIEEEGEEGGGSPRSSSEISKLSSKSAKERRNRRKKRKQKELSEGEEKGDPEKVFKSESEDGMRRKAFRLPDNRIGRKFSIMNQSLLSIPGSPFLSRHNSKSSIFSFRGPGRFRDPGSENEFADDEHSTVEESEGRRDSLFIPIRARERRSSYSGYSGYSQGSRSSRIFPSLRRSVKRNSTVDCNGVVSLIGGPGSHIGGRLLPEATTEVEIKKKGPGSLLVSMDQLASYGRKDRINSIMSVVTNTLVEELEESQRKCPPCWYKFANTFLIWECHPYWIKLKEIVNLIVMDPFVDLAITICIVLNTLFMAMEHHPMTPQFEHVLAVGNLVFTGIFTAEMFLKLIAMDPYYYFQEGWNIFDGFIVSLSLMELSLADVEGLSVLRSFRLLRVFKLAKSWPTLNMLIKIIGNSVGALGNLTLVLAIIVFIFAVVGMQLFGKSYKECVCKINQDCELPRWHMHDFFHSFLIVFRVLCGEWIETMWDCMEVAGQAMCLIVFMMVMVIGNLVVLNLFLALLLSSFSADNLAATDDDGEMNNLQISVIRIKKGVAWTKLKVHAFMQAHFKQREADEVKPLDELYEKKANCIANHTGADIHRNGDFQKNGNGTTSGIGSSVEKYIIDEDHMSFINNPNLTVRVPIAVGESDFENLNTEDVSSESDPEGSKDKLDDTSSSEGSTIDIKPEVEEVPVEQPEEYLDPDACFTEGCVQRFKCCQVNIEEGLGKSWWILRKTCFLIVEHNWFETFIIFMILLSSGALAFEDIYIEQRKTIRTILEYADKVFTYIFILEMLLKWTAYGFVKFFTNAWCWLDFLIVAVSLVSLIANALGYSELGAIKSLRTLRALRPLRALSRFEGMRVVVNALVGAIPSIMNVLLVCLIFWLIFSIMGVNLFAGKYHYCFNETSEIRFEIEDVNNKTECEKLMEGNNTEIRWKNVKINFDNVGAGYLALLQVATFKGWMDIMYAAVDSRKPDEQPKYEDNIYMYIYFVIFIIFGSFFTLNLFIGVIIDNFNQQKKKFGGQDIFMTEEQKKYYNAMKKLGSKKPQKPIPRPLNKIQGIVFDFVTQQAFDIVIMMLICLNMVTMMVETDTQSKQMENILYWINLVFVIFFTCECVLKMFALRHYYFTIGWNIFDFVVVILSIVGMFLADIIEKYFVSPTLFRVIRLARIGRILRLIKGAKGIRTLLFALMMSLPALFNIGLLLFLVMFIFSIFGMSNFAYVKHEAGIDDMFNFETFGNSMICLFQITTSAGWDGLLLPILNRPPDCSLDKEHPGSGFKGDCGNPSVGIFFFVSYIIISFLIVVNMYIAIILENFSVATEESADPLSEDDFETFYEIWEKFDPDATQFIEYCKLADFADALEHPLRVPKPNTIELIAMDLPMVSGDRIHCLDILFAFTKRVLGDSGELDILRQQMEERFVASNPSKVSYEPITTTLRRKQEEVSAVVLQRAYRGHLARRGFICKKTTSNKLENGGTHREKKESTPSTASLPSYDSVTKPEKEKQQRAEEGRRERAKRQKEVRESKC
Type: cell-based
Protocol: Functional characterization of exemplary compounds to modulate voltage gated sodium currents was accomplished using the PatchXpress™ high throughput electrophysiology platforms (Molecular Devices, Sunnyvale, CA). HEK-293 cells expressing recombinant sodium channels were grown in DMEM/high-glucose Dulbecco's modified, 10% FBS, 2 mM sodium pyruvate, and G418. Nav channel expressing cells were grown to 50%-80% confluency and harvested by trypsinization. Trypsinized cells were washed and resuspended in extracellular buffer at a concentration of 1×10^6 cells/ml. The onboard liquid handling facility of the PatchXpress was used for dispensing cells and application of test compounds. Nav late currents were evoked by the application of ATX-II, 300 nM. Currents were evoked by depolarizing pulses to 0 mV for 200 ms from a non-inactivating holding potential (e.g., −120 mV to −150 mV) at a frequency of 0.1 Hz. Late current amplitude and stability were determined by analyzing the mean current amplitude over the 175-195 msec region of the 200 msec test pulse. Following steady state block with exemplary compounds (e.g., as described herein) at 1 μM, a Na^+ free solution containing an impermeant cation (e.g., Choline or NDMG) was added for determination of the 0 current level. Late current amplitudes for each test condition were determined from the mean of the 175-195 msec region of the 200 msec test pulse. Percent inhibition of steady state currents was calculated as (compound−baseline)/(control−baseline)*100, where control represents INaL recorded in the absence of compound.

inhibition at 1 µM [%] | Compound
< 50 | C[C@H](Oc1ncc(-c2cn3c(C4CC4(F)F)nnc3cn2)cc1F)C(F)(F)F (single isomer, unassigned) [18 (Isomer 1)]
> 75 | Fc1cc(-c2cn3c(C(F)(F)F)nnc3cn2)cnc1OC1CC(F)(F)C1(F)F (single isomer, unassigned) [32 (Isomer 1)]
> 75 | Cc1cc2nnc(C(F)(F)F)n2nc1-c1cnc(O[C@@H](C)C(F)(F)F)c(F)c1 [Compound 44, (S)-6-(5-fluoro-6-((1,1,1-trifluoropropan-2-yl)oxy)pyridin-3-yl)-7-methyl-3-(trifluoromethyl)-[1,2,4]triazolo[4,3-b]pyridazine]
< 50 | Fc1cc(-c2cn3c(C(F)F)nnc3cn2)cnc1OCC1CC1(F)F (single isomer, unassigned) [30 (Isomer 1)]
> 75 | Cc1cc2nnc(C(F)(F)F)n2nc1-c1ccc(O[C@@H](C)C(F)(F)F)nc1 [Compound 48, (S)-7-methyl-3-(trifluoromethyl)-6-(6-((1,1,1-trifluoropropan-2-yl)oxy)pyridin-3-yl)-[1,2,4]triazolo[4,3-b]pyridazine]
> 75 | CC(C)(Oc1ncc(-c2cn3c(C(F)F)nnc3cn2)cc1F)C(F)(F)F [Compound 1, 3-(difluoromethyl)-6-[5-fluoro-6-(2,2,2-trifluoro-1,1-dimethyl-ethoxy)-3-pyridyl]-[1,2,4]triazolo[4,3-a]pyrazine]
> 75 | CC(C)(Oc1ncc(-c2ccc3nnc(C(F)(F)F)n3n2)cc1F)C(F)(F)F [Compound 34, 6-[5-fluoro-6-(2,2,2-trifluoro-1,1-dimethyl-ethoxy)-3-pyridyl]-3-(trifluoromethyl)-[1,2,4]triazolo[4,3-b]pyridazine]
50 to 75 | Fc1cc(-c2ccc3nnc(C(F)(F)F)n3n2)cnc1OCC1CC1(F)F (stereo not shown) [Compound 24, 6-[6-[(2,2-difluorocyclopropyl)methoxy]-5-fluoro-3-pyridyl]-3-(trifluoromethyl)-[1,2,4]triazolo[4,3-b]pyridazine]
> 75 | CC(C)(Oc1ncc(-c2ccc3nnc(C4CC(F)(F)C4)n3n2)cc1F)C(F)(F)F [Compound 14, 3-(3,3-difluorocyclobutyl)-6-[5-fluoro-6-(2,2,2-trifluoro-1,1-dimethyl-ethoxy)-3-pyridyl]-[1,2,4]triazolo[4,3-b]pyridazine]
< 50 | Fc1cc(-c2cn3c(C(F)F)nnc3cn2)cnc1OCC1CC1(F)F (stereo not shown) [Compound 31, 6-[6-[(2,2-difluorocyclopropyl)methoxy]-5-fluoro-3-pyridyl]-3-(difluoromethyl)-[1,2,4]triazolo[4,3-a]pyrazine]
50 to 75 | CC(C)(Oc1ncc(-c2cn3c(C4CC4(F)F)nnc3cn2)cc1F)C(F)(F)F (stereo not shown) [Compound 10, 3-(2,2-difluorocyclopropyl)-6-[5-fluoro-6-(2,2,2-trifluoro-1,1-dimethyl-ethoxy)-3-pyridyl]-[1,2,4]triazolo[4,3-a]pyrazine]
50 to 75 | Fc1cc(-c2ccc3nnc(C(F)F)n3n2)cnc1OCC1CC1(F)F (single isomer, unassigned) [21 (Isomer 1)]
50 to 75 | C[C@@H](Oc1ncc(-c2nn3c(C(F)(F)F)nnc3cc2Cl)cc1F)C(F)(F)F [Compound 42, 7-chloro-6-[5-fluoro-6-[(1R)-2,2,2-trifluoro-1-methyl-ethoxy]-3-pyridyl]-3-(trifluoromethyl)-[1,2,4]triazolo[4,3-b]pyridazine]
> 75 | CC(C)(Oc1ncc(-c2nn3c(C(F)(F)F)nnc3cc2Cl)cc1F)C(F)(F)F [Compound 41, 7-chloro-6-[5-fluoro-6-(2,2,2-trifluoro-1,1-dimethyl-ethoxy)-3-pyridyl]-3-(trifluoromethyl)-[1,2,4]triazolo[4,3-b]pyridazine]
50 to 75 | C[C@H](Oc1ncc(-c2cn3c(C4CC(F)(F)C4)nnc3cn2)cc1F)C(F)(F)F [Compound 19, 3-(3,3-difluorocyclobutyl)-6-[5-fluoro-6-[(1S)-2,2,2-trifluoro-1-methyl-ethoxy]-3-pyridyl]-[1,2,4]triazolo[4,3-a]pyrazine]
50 to 75 | Cc1c(-c2cnc(O[C@H](C)C(F)(F)F)c(F)c2)ncc2nnc(C(F)(F)F)n12 [Compound 39, 6-[5-fluoro-6-[(1R)-2,2,2-trifluoro-1-methyl-ethoxy]-3-pyridyl]-5-methyl-3-(trifluoromethyl)-[1,2,4]triazolo[4,3-a]pyrazine]
50 to 75 | Fc1cc(-c2ccc3nnc(C(F)(F)F)n3n2)cnc1OCC1CC1(F)F (single isomer, unassigned) [23 (Isomer 1)]
> 75 | CC(C)(Oc1ncc(-c2cn3c(C(F)(F)F)nnc3cn2)cc1F)C(F)(F)F [Compound 3, 6-[5-fluoro-6-(2,2,2-trifluoro-1,1-dimethyl-ethoxy)-3-pyridyl]-3-(trifluoromethyl)-[1,2,4]triazolo[4,3-a]pyrazine]
50 to 75 | C[C@@H](Oc1ccc(-c2nn3c(C(F)(F)F)nnc3cc2Cl)cn1)C(F)(F)F [Compound 47, (R)-7-chloro-3-(trifluoromethyl)-6-(6-((1,1,1-trifluoropropan-2-yl)oxy)pyridin-3-yl)-[1,2,4]triazolo[4,3-b]pyridazine]
> 75 | C[C@H](Oc1ncc(-c2ccc3nnc(C(F)F)n3n2)cc1F)C(F)(F)F [Compound 15, 3-(difluoromethyl)-6-[5-fluoro-6-[(1S)-2,2,2-trifluoro-1-methyl-ethoxy]-3-pyridyl]-[1,2,4]triazolo[4,3-b]pyridazine]

Compound | inhibition at 1 µM [%]
Fc1cc(-c2ccc3nnc(C(F)(F)F)n3n2)cnc1OC1(C(F)(F)F)CCC1 [Compound 6, 6-[5-fluoro-6-[1-(trifluoromethyl)cyclobutoxy]-3-pyridyl]-3-(trifluoromethyl)-[1,2,4]triazolo[4,3-b]pyridazine] | > 75
Fc1cc(-c2cn3c(C(F)(F)F)nnc3cn2)cnc1OC1(C(F)(F)F)CCC1 [Compound 7, 6-[5-fluoro-6-[1-(trifluoromethyl)cyclobutoxy]-3-pyridyl]-3-(trifluoromethyl)-[1,2,4]triazolo[4,3-a]pyrazine] | > 75
FC(F)c1nnc2cnc(-c3ccc(OC4CC(F)(F)C4)nc3)cn12 [Compound 52, 6-(6-(3,3-difluorocyclobutoxy)pyridin-3-yl)-3-(difluoromethyl)-[1,2,4]triazolo [4,3-a]pyrazine] | 50 to 75
Fc1cc(-c2cn3c(C(F)(F)F)nnc3cn2)cnc1OC1CC(F)(F)C1(F)F (stereo not shown) [Compound 33, 6-[5-fluoro-6-(2,2,3,3-tetrafluorocyclobutoxy)-3-pyridyl]-3-(trifluoromethyl)-[1,2,4]triazolo[4,3-a]pyrazine] | > 75

Same assay, conditions: compound at 1 μM, late current evoked by ATX-II 300 nM

INaL v1.6 % Inhibition | Compound
B (inhibition of 50% to 75%) | CC(C)(Oc1ncc(-c2cn3c(C4CC4(F)F)nnc3cn2)cc1F)C(F)(F)F (single isomer, unassigned) [13 (Isomer 2)]
B (inhibition of 50% to 75%) | C[C@@H](Oc1ncc(-c2cn3c(C4CC4(F)F)nnc3cn2)cc1F)C(F)(F)F (single isomer, unassigned) [16 (Isomer 2)]
A (inhibition of less than 50%) | Fc1cc(-c2ccc3nnc(C(F)F)n3n2)cnc1OCC1CC1(F)F (single isomer, unassigned) [21 (Isomer 2)]
B (inhibition of 50% to 75%) | C[C@H](Oc1ncc(-c2cn3c(C4CC4(F)F)nnc3cn2)cc1F)C(F)(F)F (single isomer, unassigned) [18 (Isomer 2)]
